From ChEMBL document CHEMBL3091348, “Discovery of an intravenous hepatoselective glucokinase activator for the treatment of inpatient hyperglycemia” (Bioorg Med Chem Lett, 2013)
In brackets after ≈: the same amount, converted by molar mass.

Experiments:
[1] = molecular target: T1, Hexokinase-4 (Homo sapiens) (UniProt P35557); test: Activation of recombinant human glucokinase assessed as increase in enzyme Vmax for glucose by G6PDH/NADP coupled assay relative to control
T1 sequence (whole entry): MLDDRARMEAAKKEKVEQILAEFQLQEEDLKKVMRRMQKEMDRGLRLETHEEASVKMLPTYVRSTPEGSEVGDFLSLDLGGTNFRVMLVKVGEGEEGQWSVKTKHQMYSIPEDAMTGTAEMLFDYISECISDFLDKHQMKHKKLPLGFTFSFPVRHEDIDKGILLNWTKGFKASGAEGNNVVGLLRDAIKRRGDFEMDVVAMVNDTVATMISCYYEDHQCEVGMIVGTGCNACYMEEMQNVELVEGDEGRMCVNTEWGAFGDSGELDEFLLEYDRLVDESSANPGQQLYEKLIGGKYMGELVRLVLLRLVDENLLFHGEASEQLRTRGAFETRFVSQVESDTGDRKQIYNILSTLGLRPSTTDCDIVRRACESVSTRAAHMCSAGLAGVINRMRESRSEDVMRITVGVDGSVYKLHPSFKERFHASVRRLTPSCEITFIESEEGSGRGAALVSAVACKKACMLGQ

[2] = molecular target: T1, Hexokinase-4 (Homo sapiens); test: Activation of recombinant human glucokinase assessed as decrease in enzyme Km for glucose by G6PDH/NADP coupled assay relative to control
[3] = Lipophilicity, log D of the compound at pH 7.4; assay type: physicochemical; details: buffer
[4] = Apparent permeability across RRCK cells; assay type: ADME, cell-based, Canis lupus familiaris, MDCKII-LE; details: dog, MDCK
Hexokinase-4 = molecular target: T2, Hexokinase-4 (Homo sapiens, UniProt P35557); test: Activation of recombinant human glucokinase by G6PDH/NADP coupled assay
T2 sequence (P35557 whole entry): T1 sequence (whole entry)

[5] = Organic anion transporter-mediated drug uptake in rat hepatocytes assessed as passive uptake; assay type: ADME, cell-based, Hepatocyte
[6] = Organic anion transporter-mediated drug uptake in rat hepatocytes assessed as active uptake; assay type: ADME, cell-based, Hepatocyte
[7] = Organic anion transporter-mediated drug uptake in rat hepatocytes assessed as total uptake; assay type: ADME, cell-based, Hepatocyte
[8] = Aqueous kinetic solubility of the compound at pH 6.5; assay type: physicochemical; details: read-out: Kinetic_solubility
[9] = Aqueous solubility of the compound at pH 8.5; assay type: physicochemical

fold change (FC) [1]	fold change (FC) [2]	logD [3]	Papp [4] [×10⁻⁶ cm/s]	EC50 (Hexokinase-4) [µM]	Structure (SMILES)	other results
1.35	0.06	–	–	–	O=C(O)c1ccc(NC(=O)[C@H](CC2CCCC2)n2cnc(S(=O)(=O)C3CCC3)c2)nc1	–
1.21	0.11	-1.85	0.9	1.35	O=C(O)c1ccc(NC(=O)[C@H](CC2CCOCC2)n2cnc(S(=O)(=O)C3CC3)c2)nc1	–

The next lines start with the compound.

Structure (SMILES)	fold change (FC) [1]	fold change (FC) [2]	logD [3]	Papp [4] [×10⁻⁶ cm/s]	EC50 (Hexokinase-4) [µM]	other results
CC(C)c1nc(N(C)S(C)(=O)=O)nc(-c2ccc(F)cc2)c1/C=C/[C@@H](O)C[C@@H](O)CC(=O)O [ROSUVASTATIN]	–	–	–	–	–	Drug uptake [5]: 5.8 µL/min/mg; Drug uptake [6]: 91%; Drug uptake [7]: 158 µL/min/mg
O=C(O)c1ccc(NC(=O)[C@H](CC2CCCCC2)n2cnc(S(=O)(=O)C3CCC3)c2)nc1	1.25	0.08	0.15	0.3	0.227	solubility kinetic [8]: 0.198 mM (≈ 91.2 µg/mL)
O=C([O-])c1ccc(NC(=O)[C@H](CC2CCCC2)n2cnc(S(=O)(=O)C3CCC3)c2)nc1.[Na+]	–	–	–	–	–	solubility [9]: 41 mM
